Data reported in PubChem BioAssay (NCI).
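The compound was tested at five concentrations on cells cultured in 96-well plates, with a 48-hour exposure period. GI50: concentration for 50% inhibition of growth. Definition used: TGI = concentration required for complete inhibition of growth.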

Tests used:
Test in all cases: NCI anticancer screen, dose series, 48 h
CCRF-CEM leukemia = system: CCRF-CEM leukemia
HS 578T breast = system: HS 578T breast
MOLT-4 leukemia = system: MOLT-4 leukemia
NCI/ADR-RES ovarian = system: NCI/ADR-RES ovarian
HL-60(TB) leukemia = system: HL-60(TB) leukemia
RPMI-8226 leukemia = system: RPMI-8226 leukemia
SR leukemia = system: SR leukemia
COLO 205 colon = system: COLO 205 colon
SW-620 colon = system: SW-620 colon
CAKI-1 renal = system: CAKI-1 renal
IGROV1 ovarian = system: IGROV1 ovarian
786-0 renal = system: 786-0 renal
K-562 leukemia = system: K-562 leukemia
MALME-3M melanoma = system: MALME-3M melanoma
RXF 393 renal = system: RXF 393 renal
NCI-H460 lung = system: NCI-H460 lung
ACHN renal = system: ACHN renal
OVCAR-3 ovarian = system: OVCAR-3 ovarian
HCC-2998 colon = system: HCC-2998 colon
NCI-H522 lung = system: NCI-H522 lung
UACC-257 melanoma = system: UACC-257 melanoma
NCI-H23 lung = system: NCI-H23 lung
M14 melanoma = system: M14 melanoma
NCI-H226 lung = system: NCI-H226 lung
HT29 colon = system: HT29 colon
SK-MEL-28 melanoma = system: SK-MEL-28 melanoma
EKVX NSCLC = system: EKVX NSCLC
A549 NSCLC = system: A549 NSCLC
MCF7 breast = system: MCF7 breast
UO-31 renal = system: UO-31 renal
TK-10 renal = system: TK-10 renal
HCT-116 colon = system: HCT-116 colon
SF-268 CNS = system: SF-268 CNS
MDA-MB-435 = system: MDA-MB-435
HCT-15 colon = system: HCT-15 colon
DU-145 prostate = system: DU-145 prostate
LOX IMVI melanoma = system: LOX IMVI melanoma
MDA-MB-231 breast = system: MDA-MB-231 breast
HOP-62 NSCLC = system: HOP-62 NSCLC
SN12C renal = system: SN12C renal
SNB-75 CNS = system: SNB-75 CNS
OVCAR-5 ovarian = system: OVCAR-5 ovarian
SK-MEL-5 melanoma = system: SK-MEL-5 melanoma
OVCAR-8 ovarian = system: OVCAR-8 ovarian
U251 CNS = system: U251 CNS
SF-539 CNS = system: SF-539 CNS
SNB-19 CNS = system: SNB-19 CNS
KM12 colon = system: KM12 colon
SF-295 CNS = system: SF-295 CNS

Which results are given for NC(N)=Nc1ccc(-n2nc(C(F)(F)F)cc2-c2ccc3c(ccc4ccccc43)c2)cc1?
GI50 (CCRF-CEM leukemia): 2.05 µM; TGI (CCRF-CEM leukemia): 5.53 µM; GI50 (HS 578T breast): 1.59 µM; TGI (HS 578T breast): 4.34 µM; GI50 (MOLT-4 leukemia): 2.35 µM; TGI (MOLT-4 leukemia): 4.92 µM; GI50 (NCI/ADR-RES ovarian): 3.14 µM; TGI (NCI/ADR-RES ovarian): 15.6 µM; GI50 (HL-60(TB) leukemia): 1.09 µM; TGI (HL-60(TB) leukemia): 2.82 µM; GI50 (RPMI-8226 leukemia): 2.16 µM; TGI (RPMI-8226 leukemia): 5.06 µM

Which TGI (SR leukemia) does the source give for COc1ccc(NS(=O)C2CCCCC2)cc1 (stereo unspecified) here?
The TGI was > 100 µM.

What about the TGI (COLO 205 colon) of the same compound?
The TGI was > 100 µM.

What about the TGI (SW-620 colon) of the same compound?
Its TGI is > 100 µM.

What about the TGI (CAKI-1 renal) of the same compound?
Its TGI is > 100 µM.

And the TGI (IGROV1 ovarian)?
Its TGI is > 100 µM.

What about the TGI (786-0 renal) of the same compound?
Its TGI is > 100 µM.

What about the TGI (K-562 leukemia) of the same compound?
The TGI was > 100 µM.

And the TGI (MALME-3M melanoma)?
Its TGI is > 100 µM.

What about the TGI (RXF 393 renal) of the same compound?
Its TGI is > 100 µM.

And the TGI (CCRF-CEM leukemia)?
Its TGI is > 100 µM.

And the TGI (NCI-H460 lung)?
The TGI was > 100 µM.

And the TGI (ACHN renal)?
The TGI was > 100 µM.

And the TGI (OVCAR-3 ovarian)?
Its TGI is > 100 µM.

What about the TGI (HS 578T breast) of the same compound?
The TGI was > 100 µM.

What about the TGI (HCC-2998 colon) of the same compound?
The TGI was > 100 µM.

And the TGI (NCI-H522 lung)?
Its TGI is > 100 µM.

What about the TGI (UACC-257 melanoma) of the same compound?
The TGI was > 100 µM.

What about the TGI (MOLT-4 leukemia) of the same compound?
Its TGI is > 100 µM.

And the TGI (NCI-H23 lung)?
Its TGI is > 100 µM.

And the TGI (M14 melanoma)?
The TGI was > 100 µM.

What about the TGI (NCI-H226 lung) of the same compound?
Its TGI is > 100 µM.

What about the TGI (HT29 colon) of the same compound?
Its TGI is > 100 µM.

What about the TGI (SK-MEL-28 melanoma) of the same compound?
Its TGI is > 100 µM.

What about the TGI (NCI/ADR-RES ovarian) of the same compound?
Its TGI is > 100 µM.

What about the TGI (EKVX NSCLC) of the same compound?
Its TGI is > 100 µM.

And the TGI (A549 NSCLC)?
The TGI was > 100 µM.

And the TGI (MCF7 breast)?
Its TGI is > 100 µM.

What about the TGI (UO-31 renal) of the same compound?
Its TGI is > 100 µM.

And the TGI (TK-10 renal)?
Its TGI is > 100 µM.

What about the TGI (HCT-116 colon) of the same compound?
Its TGI is > 100 µM.

What about the TGI (SF-268 CNS) of the same compound?
The TGI was > 100 µM.

And the TGI (HL-60(TB) leukemia)?
The TGI was > 100 µM.

What about the TGI (MDA-MB-435) of the same compound?
Its TGI is > 100 µM.

What about the TGI (HCT-15 colon) of the same compound?
Its TGI is > 100 µM.

And the TGI (DU-145 prostate)?
The TGI was > 100 µM.

What about the TGI (RPMI-8226 leukemia) of the same compound?
The TGI was > 100 µM.

What about the TGI (LOX IMVI melanoma) of the same compound?
The TGI was > 100 µM.

What about the TGI (MDA-MB-231 breast) of the same compound?
Its TGI is > 100 µM.

And the TGI (HOP-62 NSCLC)?
The TGI was > 100 µM.

And the TGI (SN12C renal)?
The TGI was > 100 µM.

And the TGI (SNB-75 CNS)?
The TGI was > 100 µM.

And the TGI (OVCAR-5 ovarian)?
The TGI was > 100 µM.

What about the TGI (SK-MEL-5 melanoma) of the same compound?
The TGI was > 100 µM.

And the TGI (OVCAR-8 ovarian)?
The TGI was > 100 µM.

What about the TGI (U251 CNS) of the same compound?
Its TGI is > 100 µM.

And the TGI (SF-539 CNS)?
Its TGI is > 100 µM.

What about the TGI (SNB-19 CNS) of the same compound?
The TGI was > 100 µM.

What about the TGI (KM12 colon) of the same compound?
Its TGI is > 100 µM.

And the TGI (SF-295 CNS)?
The TGI was > 100 µM.
